Structures are written as SMILES.

In this experiment the test system is reductase RDR. Briefly: Substrate specificity of the reductase RDR (NADH oxidation, decrease in absorbance at 340 nm). The note with it: substrate 1 mM, NADH 0.25 mM, 100 mM phosphate buffer pH 6.5, 0.33% (v/v) dimethyl sulfoxide, 30° C. Type of experiment: biochemical, Devosia riboflavina IFO 13584.
For `CCC(=O)Cc1ccccc1` [1-phenyl-2-butanone], the “% activity (relative value, activity to N-benzyl-3-pyrrolidinone taken as 100%)” value was 147%.
As for `CC(=O)c1ccccn1` [2-acetylpyridine], the “% activity (relative value, activity to N-benzyl-3-pyrrolidinone taken as 100%)” value is on record as 13%.
Take `CC(=O)c1ccc[nH]1` [2-acetylpyrrole]: the “% activity (relative value, activity to N-benzyl-3-pyrrolidinone taken as 100%)” value is 70%.
Take `CCC(C)=O` [2-butanone]: the “% activity (relative value, activity to N-benzyl-3-pyrrolidinone taken as 100%)” value amounted to 280%.
In the case of `O=C(CCl)c1cccc(Cl)c1` [2-chloro-1-(3′-chlorophenyl)ethanone], the “% activity (relative value, activity to N-benzyl-3-pyrrolidinone taken as 100%)” value came to 463%.
For the compound `CCCCCC(C)=O` [2-heptanone], the “% activity (relative value, activity to N-benzyl-3-pyrrolidinone taken as 100%)” value amounted to 2777%.
To `CCCCC(C)=O` [2-hexanone] belongs 5043%.
In the case of `O=C(CO)c1ccccc1` [2-hydroxyacetophenone], the “% activity (relative value, activity to N-benzyl-3-pyrrolidinone taken as 100%)” value is 30%.
In the case of `CCC(=O)C(=O)O` [2-keto-n-butyric acid], the “% activity (relative value, activity to N-benzyl-3-pyrrolidinone taken as 100%)” value amounted to 15%.
To `CC(C=O)c1ccccc1` (centres unmarked) [2-phenylpropionaldehyde] belongs 706%.
In the case of `O=Cc1ccccn1` [2-pyridinecarbaldehyde] it was 82%; in that of `O=C1CCc2ccccc2C1` [2-tetoralone], 1721%.
On to `COc1ccc(C(C)=O)cc1OC` [3,4-dimethoxyacetophenone], for which the “% activity (relative value, activity to N-benzyl-3-pyrrolidinone taken as 100%)” value stood at 2073%.
In the case of `CC(=O)c1cccnc1` [3-acetylpyridine] it was 788%; in that of `O=CCCc1ccccc1` [3-phenylpropionaldehyde], 685%.
Turning to `CC(=O)c1ccncc1` [4-acetylpyridine], the “% activity (relative value, activity to N-benzyl-3-pyrrolidinone taken as 100%)” value worked out at 6448%.
In the case of `CC(=O)c1ccc(F)cc1` [4-fluoroacetophenone] it was 366%; in that of `CC(=O)CCO` [4-hydroxy-2-butanone], 33%.
Take `CC(=O)CC(C)C` [4-methyl-2-pentanone]: the “% activity (relative value, activity to N-benzyl-3-pyrrolidinone taken as 100%)” value is reported as 962%.
For the compound `COc1cc2c(cc1OC)CC(=O)CC2` [6,7-dimethoxy-2-tetoralone], the “% activity (relative value, activity to N-benzyl-3-pyrrolidinone taken as 100%)” value came to 2267%.
In the case of `COc1ccc2c(c1)CCC(=O)C2` [6-methoxy-2-tetoralone] it was 156%; in that of `COc1ccc2c(c1)CC(=O)CC2` [7-methoxy-2-tetoralone], 7084%; in that of `O=C1CCN(Cc2ccccc2)C1` [N-benzyl-3-pyrrolidinone], 100%.
With `CC(C)=O` [acetone], the “% activity (relative value, activity to N-benzyl-3-pyrrolidinone taken as 100%)” value came to 194%.
Turning to `CC(=O)c1ccccc1` [acetophenone], the “% activity (relative value, activity to N-benzyl-3-pyrrolidinone taken as 100%)” value is 181%.
In the case of `CC(=O)CC(C)=O` [acetylacetone] it was 1354%.
To `O=Cc1ccccc1` [benzaldehyde] belongs 21%; to `O=C(c1ccccc1)C(O)c1ccccc1` (centres unmarked) [benzoin], 13%; to `CC(=O)CC(=O)OCc1ccccc1` [benzyl acetoacetate], 2015%.
In the case of `CC(=O)CCc1ccccc1` [benzylacetone] it was 410%; in that of `O=C1CCCC1` [cyclopentanone], 103%.
`CC(=O)C1CC1` [cyclopropyl methyl ketone]: the “% activity (relative value, activity to N-benzyl-3-pyrrolidinone taken as 100%)” value stood at 20%.
Regarding `CC(=O)C(C)=O` [diacetyl], the “% activity (relative value, activity to N-benzyl-3-pyrrolidinone taken as 100%)” value came out at 1614%.
In the case of `CCC(=O)CC` [diethyl ketone] it was 32%; in that of `CC1(C)COC(=O)C1=O` [dihydro-4,4-dimethyl-2,3-furandione], 1314%.
In the case of `CCOC(=O)C(Cl)C(=O)c1ccccc1` (centres unmarked) [ethyl 2-chloro-3-oxo-3-phenyloropionate], the “% activity (relative value, activity to N-benzyl-3-pyrrolidinone taken as 100%)” value came to 52%.
As for `CCOC(=O)C(Cl)C(C)=O` (centres unmarked) [ethyl 2-chloroacetoacetate], the “% activity (relative value, activity to N-benzyl-3-pyrrolidinone taken as 100%)” value came out at 8907%.
To `C=CC(C(C)=O)C(=O)OCC` (centres unmarked) [ethyl 2-eteneacetoacetate] belongs 429%; to `CCOC(=O)C(C)C(C)=O` (centres unmarked) [ethyl 2-methylacetoacetate], 239%; to `CCCCCCCCC(=O)C(=O)OCC` [ethyl 2-oxodecanoate], 18%.
Turning to `CCOC(=O)C1CCC(=O)C1` (centres unmarked) [ethyl 3-oxocyclopentane carboxylate], the “% activity (relative value, activity to N-benzyl-3-pyrrolidinone taken as 100%)” value came out at 87%.
As for `CCOC(=O)CC(=O)COC(C)=O` [ethyl 4-acetoxyacetoacetate], the “% activity (relative value, activity to N-benzyl-3-pyrrolidinone taken as 100%)” value is 4234%.
For `CCOC(=O)CC(=O)CN=[N+]=[N-]` [ethyl 4-azideacetoacetate], the “% activity (relative value, activity to N-benzyl-3-pyrrolidinone taken as 100%)” value was found to be 804%.
`CCOC(=O)CC(=O)COCc1ccccc1` [ethyl 4-benzyloxyacetoacetate]: the “% activity (relative value, activity to N-benzyl-3-pyrrolidinone taken as 100%)” value is 3186%.
As for `CCOC(=O)CC(=O)CBr` [ethyl 4-bromoacetoacetate], the “% activity (relative value, activity to N-benzyl-3-pyrrolidinone taken as 100%)” value came to 4099%.
As for `CCOC(=O)CC(=O)CCl` [ethyl 4-chloroacetoacetate], the “% activity (relative value, activity to N-benzyl-3-pyrrolidinone taken as 100%)” value was determined as 683%.
Take `CCOC(=O)CC(=O)CO` [ethyl 4-hydroxyacetoacetate]: the “% activity (relative value, activity to N-benzyl-3-pyrrolidinone taken as 100%)” value worked out at 1774%.
In the case of `CCOC(=O)CC(C)=O` [ethyl acetoacetate], the “% activity (relative value, activity to N-benzyl-3-pyrrolidinone taken as 100%)” value amounted to 4236%.
In the case of `CCOC(=O)CC(=O)c1ccccc1` [ethyl benzoylacetate], the “% activity (relative value, activity to N-benzyl-3-pyrrolidinone taken as 100%)” value is recorded as 98%.
In the case of `CCOC(=O)C(C)=O` [ethyl pyruvate] it was 6232%; in that of `O=CCCCC=O` [glutaraldehyde], 1339%; in that of `CC(=O)CO` [hydroxyacetone], 100%.
As to `CC(=O)CCC(=O)O` [levulinic acid], the “% activity (relative value, activity to N-benzyl-3-pyrrolidinone taken as 100%)” value is 11%.
As to `O=Cc1cccc(Cl)c1` [m-chlorobenzaldehyde], the “% activity (relative value, activity to N-benzyl-3-pyrrolidinone taken as 100%)” value amounted to 301%.
`CC(=O)c1cccc(O)c1` [m-hydroxyacetophenone]: the “% activity (relative value, activity to N-benzyl-3-pyrrolidinone taken as 100%)” value is given as 61%.
With `CC(=O)c1cccc([N+](=O)[O-])c1` [m-nitroacetophenone], the “% activity (relative value, activity to N-benzyl-3-pyrrolidinone taken as 100%)” value is on record as 6927%.
For `O=Cc1cccc([N+](=O)[O-])c1` [m-nitrobenzaldehyde], the “% activity (relative value, activity to N-benzyl-3-pyrrolidinone taken as 100%)” value is reported as 683%.
Regarding `COC(=O)CC(C)=O` [methyl acetoacetate], the “% activity (relative value, activity to N-benzyl-3-pyrrolidinone taken as 100%)” value turned out to be 8341%.
Turning to `CC(=O)C=O` [methyl glyoxal], the “% activity (relative value, activity to N-benzyl-3-pyrrolidinone taken as 100%)” value came out at 345%.
Turning to `COC(=O)C(C)=O` [methyl pyruvate], the “% activity (relative value, activity to N-benzyl-3-pyrrolidinone taken as 100%)” value is 1889%.
Consider `CCCC=O` [n-butylaldehyde], for which the “% activity (relative value, activity to N-benzyl-3-pyrrolidinone taken as 100%)” value is recorded as 728%.
To `CCCCCC=O` [n-hexylaldehyde] belongs 2225%; to `CCCCCCCCOC(=O)CC(=O)CCl` [n-octyl 4-chloroacetoacetate], 224%.
As to `O=Cc1ccccc1Cl` [o-chlorobenzaldehyde], the “% activity (relative value, activity to N-benzyl-3-pyrrolidinone taken as 100%)” value is on record as 9%.
`O=Cc1ccccc1[N+](=O)[O-]` [o-nitrobenzaldehyde]: the “% activity (relative value, activity to N-benzyl-3-pyrrolidinone taken as 100%)” value is 33%.
With `O=C(O)CC(=O)C(=O)O` [oxalacetic acid], the “% activity (relative value, activity to N-benzyl-3-pyrrolidinone taken as 100%)” value turned out to be 14%.
Take `CC(=O)c1ccc(Cl)cc1` [p-chloroacetophenone]: the “% activity (relative value, activity to N-benzyl-3-pyrrolidinone taken as 100%)” value is listed as 2354%.
In the case of `O=Cc1ccc(Cl)cc1` [p-chlorobenzaldehyde] it was 117%; in that of `CC(=O)c1ccc(C)cc1` [p-methylacetophenone], 521%.
To `O=Cc1ccc([N+](=O)[O-])cc1` [p-nitrobenzaldehyde] belongs 1296%.
Take `CCC=O` [propionaldehyde]: the “% activity (relative value, activity to N-benzyl-3-pyrrolidinone taken as 100%)” value is listed as 204%.
Turning to `CCC(=O)c1ccccc1` [propiophenone], the “% activity (relative value, activity to N-benzyl-3-pyrrolidinone taken as 100%)” value was found to be 27%.
To `O=Cc1ccncc1` [pyridine-4-aldehyde] belongs 441%; to `CC(=O)CC(=O)OC(C)(C)C` [tert-butyl acetoacetate], 5634%.

(Values after patent publication US7531329B2, “Carbonyl reductase, gene thereof and method of using the same” (Kaneka Corporation, priority 2002, dated 2009).)
